Laboratory results: PMC4389562, “Antigiardial activity of novel triazolyl-quinolone-based chalcone derivatives: when oxygen makes the difference” (Frontiers in Microbiology, 2015)
Read-outs that look alike come from different tables or passages of the source.

How the values were obtained:
[1] = tested on: Caco-2 cells; assay: Counter-screen on Caco-2 cells, ATP level by luminescence (ATPlite), 48 h incubation; assay type: cell-based, human; conditions: atmospheric O2, 5% CO2, 48 h, 37 °C
Procedure: Trophozoites of G. intestinalis strain WB clone C6 (ATCC No. 50803TM) were cultured axenically at 37^∘C in 25-cm^2 flasks containing Diamond’s TYI-S-33 medium supplemented with 10% bovine calf serum, 1 mg/mL bovine bile, 0.1 g/L streptomycin and 100 U/mL penicillin. […] Human epithelial colorectal adenocarcinoma (Caco-2) cells were grown in 25-cm^2 flasks in EMEM supplemented with 1% (v/v) non-essential amino acids, 2 mM glutamine, 5% (v/v) fetal bovine serum, 0.1 g/L streptomycin, and 100 U/mL penicillin.
Cells were detached with 0.5% trypsin-EDTA and seeded in sterile 96-well white clear-bottom plates at the same density of Giardia trophozoites and at increasing concentration of the compound to be tested, as described above. The assays were carried out exactly as reported for the Giardia trophozoites, except that the plates were incubated (still at 37^∘C) at atmospheric O2 level, 5% CO2, and 95% humidity. Each drug concentration was tested in at least seven replicates. MTZ was used as an internal […] control in the assay. Following 48 h incubation with each compound, according to the manufacturer instructions, 100 μL of the ATPlite^TM luminescence assay system (Perkin Elmer) was added to each well for one-step lysis and ATP level detection by luminescence.
Luminometric data were calibrated using ATP standard curves and normalized to the ATP level measured in control DMSO-treated cells (taken as 100%). The measured ATP level percentage was plotted as a function of the compound concentration and the half-maximal inhibitory concentration (IC50) was obtained by fitting the resulting titration profile to the Hill equation ([Goutelle et al., 2008]). The selectivity index (SI) of the compounds was then calculated as the ratio between the IC50 value measured on human cells over the value determined on Giardia trophozoites (SI = IC50,Caco-2/IC50,Giardia).
Selectivity of the newly synthesized compounds toward Giardia was assessed by running a counter-screen on human epithelial Caco-2 cells. […] This allowed us to calculate the compounds SI, defined as the ratio between the IC50 value measured on human cells over the value determined on Giardia trophozoites.

[2] = tested on: Giardia intestinalis trophozoites; assay: Drug susceptibility of Giardia trophozoites, ATP level by luminescence (BacTiter-Glo), 48 h incubation, anaerobic or microaerobic; assay type: cell-based, Giardia intestinalis strain WB clone C6; conditions: for IC50: 48 h, 37 °C, ATP level; for Selectivity (IC50,Caco/IC50,Giardia) Microaerobiosis / Selectivity (IC50,Caco/IC50,Giardia) Anaerobiosis: SI = IC50,Caco-2/IC50,Giardia; for selectivity ratio at 48 h: human (Caco-2 cells) versus Giardia intestinalis, Caco-2, SI = IC50,Caco-2/IC50,Giardia
Procedure: Trophozoites of G. intestinalis strain WB clone C6 (ATCC No. 50803TM) were cultured axenically at 37^∘C in 25-cm^2 flasks containing Diamond's TYI-S-33 medium supplemented with 10% bovine calf serum, 1 mg/mL bovine bile, 0.1 g/L streptomycin and 100 U/mL penicillin. Typically, 50 ml medium was inoculated with 25 × 10^6 cells and after 2 days cells were harvested by chilling the flasks on ice for 30 min for drug susceptibility assays. […] The assays were performed following the procedure described in [Bahadur et al. (2014)], using sterile 96-well white clear-bottom plates. […] Each drug concentration was tested in at least six replicates. MTZ was used as an internal positive control in the assay. The microtiter plates were then incubated at 37^∘C under anaerobic or microaerobic conditions, ensured by the Anaerocult® A or the Anaerocult® […] (Merck), respectively. […] Following 48 h incubation with the compound to be tested, 100 μL of the BacTiter-Glo^TM Microbial Cell Viability Assay System reagent (Promega) was added to each well for one-step lysis and ATP level detection. Plates were then incubated at room temperature for 15 min and ATP levels finally detected by luminescence on a plate reader (Wallac Victor3 1420 Multilabel Counter, PerkinElmer). Luminometric data were calibrated using ATP standard curves and normalized to the ATP level measured in control DMSO-treated cells (taken as 100%). The measured ATP level percentage was plotted as a function of the compound concentration and the half-maximal inhibitory concentration (IC50) was obtained by fitting the resulting titration profile to the Hill equation ([Goutelle et al., 2008]). The selectivity index (SI) of the compounds was then calculated as the ratio between the IC50 value measured on human cells over the value determined on Giardia trophozoites (SI = IC50,Caco-2/IC50,Giardia). The antigiardial activity of the novel compounds 23-67 was tested under both anaerobic and microaerobic conditions. According to ([Dunn et al., 2010]; [Bahadur et al., 2014]), susceptibility of Giardia trophozoites to increasing concentrations of each compound was assessed based on ATP level determination by luminescence. Dose-response curves for each compound were obtained after 48 h-incubation and compared to the data collected under identical conditions with MTZ, the drug of choice for treatment of giardiasis. […] Typical dose-response curves are shown in Figure 2, whereas the IC50 values measured for the synthetic compounds and MTZ under anaerobic and microaerobic conditions are reported in Table 1. […] Under anaerobic conditions, 18 out of the 45 synthetic compounds were as effective as MTZ or more under identical conditions (see Table 1).

[3] = Giardia duodenalis, anaerobic conditions (Anaerocult A), read-out: Giardia (anaerobiosis) IC50
[4] = Giardia duodenalis, microaerobic conditions (~5% O2, Anaerocult C), read-out: Giardia (microaerobiosis) IC50
[5] = anaerobic conditions (Anaerocult A), read-out: Giardia (anaerobiosis) IC50
[6] = microaerobic conditions (~5% O2, Anaerocult C), read-out: Giardia (microaerobiosis) IC50
[7] = Giardia under anaerobiosis, read-out: Selectivity (IC50,Caco/IC50,Giardia) Anaerobiosis
[8] = Giardia under microaerobiosis, read-out: Selectivity (IC50,Caco/IC50,Giardia) Microaerobiosis

SMILES | IC50 ([1]; Homo sapiens, Caco-2, 48 h) | melting point | IC50 [2, 3] | IC50 [2, 4] | IC50 [1] | Selectivity (IC50,Caco/IC50,Giardia) Microaerobiosis ([2]; Giardia under microaerobiosis) | IC50 [2, 5] | IC50 [2, 6] | selectivity ratio at 48 h [2, 7] | selectivity ratio at 48 h [2, 8] | Selectivity (IC50,Caco/IC50,Giardia) Anaerobiosis ([2]; Giardia under anaerobiosis)
COc1ccc(-n2cc(Cn3c(=O)c(/C=C/C(=O)c4ccccc4F)cc4ccccc43)nn2)cc1 [Compound 23] | ≥ 100 µM | 215 to 217 °C | ≥ 100 µM | ≥ 20 µM | – | – | – | – | – | – | –
COc1ccc(-n2cc(Cn3c(=O)c(/C=C/C(=O)c4cccc(F)c4)cc4ccccc43)nn2)cc1 [Compound 24] | – | – | – | – | ≥ 50 µM | ≥6 | ≥ 100 µM | 8.4 µM | – | – | –
COc1ccc(-n2cc(Cn3c(=O)c(/C=C/C(=O)c4ccc(F)cc4)cc4ccccc43)nn2)cc1 [Compound 25] | ≥ 20 µM | 211 to 213 °C | 3.9 µM | 1.3 µM | – | – | – | – | ≥ 5 | ≥ 15 | –
COc1ccc(-n2cc(Cn3c(=O)c(/C=C/C(=O)c4ccc(Cl)cc4)cc4ccccc43)nn2)cc1 [Compound 26] | ≥ 20 µM | 230 to 232 °C | 5 µM | 2.6 µM | – | – | – | – | ≥ 4 | ≥ 7 | –
COc1ccc(-n2cc(Cn3c(=O)c(/C=C/C(=O)c4ccc(Br)cc4)cc4ccccc43)nn2)cc1 [Compound 27] | – | – | – | – | ≥ 20 µM | ≥10 | 9.6 µM | 2 µM | – | – | ≥2
COc1ccc(-n2cc(Cn3c(=O)c(/C=C/C(=O)c4ccc(C)cc4)cc4ccccc43)nn2)cc1 [Compound 28] | ≥ 80 µM | 213 to 215 °C | 5.4 µM | 1.5 µM | – | – | – | – | ≥ 14 | ≥ 53 | –
COc1ccc(-n2cc(Cn3c(=O)c(/C=C/C(=O)c4ccccc4OC)cc4ccccc43)nn2)cc1 [Compound 29] | ≥ 40 µM | 210 to 212 °C | 2.2 µM | 0.4 µM | – | – | – | – | > 15 | – | –
COc1ccc(-n2cc(Cn3c(=O)c(/C=C/C(=O)c4cccc(OC)c4)cc4ccccc43)nn2)cc1 [Compound 30] | – | – | – | – | ≥ 200 µM | ≥153 | 5.9 µM | 1.3 µM | – | – | ≥33
COc1ccc(C(=O)/C=C/c2cc3ccccc3n(Cc3cn(-c4ccc(OC)cc4)nn3)c2=O)cc1 [Compound 31] | ≥ 80 µM | 190 to 192 °C | ≥ 50 µM | 2 µM | – | – | – | – | – | ≥ 40 | –
Cc1ccc(-n2cc(Cn3c(=O)c(/C=C/C(=O)c4ccccc4F)cc4ccccc43)nn2)cc1 [Compound 32] | 17.6 µM | 197 to 199 °C | 3.2 µM | 0.6 µM | – | – | – | – | 5.5 | 29.3 | –
Cc1ccc(-n2cc(Cn3c(=O)c(/C=C/C(=O)c4cccc(F)c4)cc4ccccc43)nn2)cc1 [Compound 33] | – | – | – | – | 13.4 µM | 19,1 | 4 µM | 0.7 µM | – | – | 3,4
